Laboratory results from patent US20120065066A1, “NOVEL HERBICIDES” (SYNGENTA CROP PROTECTION LLC, priority 2009, published 2012).

How the values were obtained:
Type in all cases: in vivo
[1] = tested on: Alopecurus myosuroides (ALOMY); assay: Test Example B, pre-emergence herbicidal test; conditions: 312 h, evaluated after 13 days, 100=total damage to plant, 0=no damage to plant
Method in brief: (§1)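 Seeds sown in standard soil and sprayed 1 day after sowing with compound formulated in acetone/water (50:50) with 0.5% Tween 20. Plants grown in a glasshouse at 24/16 °C day/night, 14 h light, 65% humidity. Damage scored after 13 days on a 0–100 scale (100 = total damage).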

[2] = tested on: Avena fatua (AVEFA); assay: Test Example B, pre-emergence herbicidal test; conditions: 312 h, evaluated after 13 days, 100=total damage to plant, 0=no damage to plant
Method in brief: as §1

[3] = tested on: Echinochloa crus-galli (ECHCG); assay: Test Example B, pre-emergence herbicidal test; conditions: 312 h, evaluated after 13 days, 100=total damage to plant, 0=no damage to plant
Method in brief: as §1

[4] = tested on: Setaria faberi (SETFA); assay: Test Example B, pre-emergence herbicidal test; conditions: 250 g/ha, evaluated after 13 days, 100=total damage to plant, 0=no damage to plant
Method in brief: as §1

[5] = tested on: Alopecurus myosuroides (ALOMY); assay: Test Example B, post-emergence herbicidal test; conditions: 312 h, evaluated after 13 days, 100=total damage to plant, 0=no damage to plant
Method in brief: (§2)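 Pot-grown plants were sprayed 8 days after sowing with active ingredient in acetone/water (50:50) containing 0.5% Tween 20. Plants were kept in a glasshouse at 24/16 °C day/night, 14 h light and 65% humidity. Damage was scored 13 days later on a 0–100 scale, where 100 means total damage.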

[6] = tested on: Avena fatua (AVEFA); assay: Test Example B, post-emergence herbicidal test; conditions: 312 h, evaluated after 13 days, 100=total damage to plant, 0=no damage to plant
Method in brief: as §2

[7] = tested on: Echinochloa crus-galli (ECHCG); assay: Test Example B, post-emergence herbicidal test; conditions: 312 h, evaluated after 13 days, 100=total damage to plant, 0=no damage to plant
Method in brief: as §2

[8] = tested on: Setaria faberi (SETFA); assay: Test Example B, post-emergence herbicidal test; conditions: 250 g/ha, evaluated after 13 days, 100=total damage to plant, 0=no damage to plant
Method in brief: as §2

| Structure (SMILES) | pest or weed control at 250 g/ha [1] | pest or weed control at 250 g/ha [2] | pest or weed control at 250 g/ha [3] | SETFA damage to plant [4] | pest or weed control at 250 g/ha [5] | pest or weed control at 250 g/ha [6] | pest or weed control at 250 g/ha [7] | SETFA damage to plant [8] |
| --- | --- | --- | --- | --- | --- | --- | --- | --- |
| Cc1cc(-c2ccccc2)cc(C)c1C1=C(O)[C@@H]2[C@H](C1=O)[C@@H]1C=C[C@H]2CC1 (racemic) [Compound T56, endo-(3aR,4S,7R,7aS)-2-(3,5-dimethylbiphenyl-4-yl)-3a,4,7,7a-tetrahydro-4,7-ethanoindene-1,3-dione] | 100% | 20% | 100% | 100 | 60% | 60% | 100% | 100 |
| CCc1cc(C)cc(CC)c1C1=C(O)[C@H]2[C@H]3CC[C@](OC)(CC3)[C@H]2C1=O [Compound T57] | 100% | 100% | 100% | 100 | 70% | 30% | 100% | 100 |
| CO/N=C1/C[C@H]2CC[C@@H]1[C@H]1C(=O)C(c3c(C)cc(C)cc3C)=C(O)[C@@H]21 [Compound T59] | 90% | 30% | 80% | 80 | 30% | 0% | 50% | 80 |
